Source: patent EP0024842A1, “Methyl (5-(2-thienylhydroxymethyl)-1H-benzimidazol-2-yl) carbamate, process for its preparation and compositions containing it” (priority 1979, dated 1981)

Legend:
rats = assay: Embryotoxic effect in rats, 'another test' at equimolar doses; format: in vivo, rat
[1] = tested on: pregnant Sprague-Dawley rats; assay: Embryotoxic activity in pregnant rats (antimitotic test according to Delatour and Richard), dose series; conditions: orally; for Embryo-toxicity %: daily from the 8th to the 15th day of gestation; for # Fetus: 8th to 15th day of gestation

| SMILES | % (embryotoxic effect) (rats; Oral Dose Per Day 5.05 mg/kg) | Embryo-toxicity % ([1]; 3.03 mg/kg/day) | Embryo-toxicity % ([1]; 5.05 mg/kg/day) | % (embryotoxic effect) (rats; Oral Dose Per Day 5.02 mg/kg) | Foet./ Implant (rats; Oral Dose Per Day 5.02 mg/kg) | # Fetus ([1]; 7.5 mg/kg/day, 40 implantations) | Embryo-toxicity % ([1]; 7.5 mg/kg/day) | # Fetus ([1]; 15 mg/kg/day, 30 implantations) | Embryo-toxicity % ([1]; 15 mg/kg/day) | # Fetus ([1]; 30 mg/kg/day, 28 implantations) | Embryo-toxicity % ([1]; 30 mg/kg/day) |
| --- | --- | --- | --- | --- | --- | --- | --- | --- | --- | --- | --- |
| COC(=O)Nc1nc2ccc(C(O)c3cccs3)cc2[nH]1 (racemic) [I, methyl [5-(2-thienylhydroxymethyl)-lH-benzimidazol-2-yl]-carbamate] | 100% | 12.06% | 100% |  |  |  |  |  |  |  |  |
| COC(=O)Nc1nc2ccc(C(=O)c3cccs3)cc2[nH]1 [II, Methyl 5-[(2-thenoyl)-lH-benzimidazol-2-yl]-carbamate] |  |  |  | 3.5% | 55/57 | 0 | 100% | 0 | 100% | 0 | 100% |
